In ChEMBL document CHEMBL5465560, “Selectivity Literature for EUbOPEN Chemogenomic Library” (2024):

How the values were obtained:
[1] = molecular target: T1, Ephrin type-A receptor 8 (Homo sapiens) (UniProt P29322); test: Selectivity interaction (KinomeScan (DiscoverX)) EUB0000229b EPHA8; details: at 10 µM
T1 sequence (whole entry): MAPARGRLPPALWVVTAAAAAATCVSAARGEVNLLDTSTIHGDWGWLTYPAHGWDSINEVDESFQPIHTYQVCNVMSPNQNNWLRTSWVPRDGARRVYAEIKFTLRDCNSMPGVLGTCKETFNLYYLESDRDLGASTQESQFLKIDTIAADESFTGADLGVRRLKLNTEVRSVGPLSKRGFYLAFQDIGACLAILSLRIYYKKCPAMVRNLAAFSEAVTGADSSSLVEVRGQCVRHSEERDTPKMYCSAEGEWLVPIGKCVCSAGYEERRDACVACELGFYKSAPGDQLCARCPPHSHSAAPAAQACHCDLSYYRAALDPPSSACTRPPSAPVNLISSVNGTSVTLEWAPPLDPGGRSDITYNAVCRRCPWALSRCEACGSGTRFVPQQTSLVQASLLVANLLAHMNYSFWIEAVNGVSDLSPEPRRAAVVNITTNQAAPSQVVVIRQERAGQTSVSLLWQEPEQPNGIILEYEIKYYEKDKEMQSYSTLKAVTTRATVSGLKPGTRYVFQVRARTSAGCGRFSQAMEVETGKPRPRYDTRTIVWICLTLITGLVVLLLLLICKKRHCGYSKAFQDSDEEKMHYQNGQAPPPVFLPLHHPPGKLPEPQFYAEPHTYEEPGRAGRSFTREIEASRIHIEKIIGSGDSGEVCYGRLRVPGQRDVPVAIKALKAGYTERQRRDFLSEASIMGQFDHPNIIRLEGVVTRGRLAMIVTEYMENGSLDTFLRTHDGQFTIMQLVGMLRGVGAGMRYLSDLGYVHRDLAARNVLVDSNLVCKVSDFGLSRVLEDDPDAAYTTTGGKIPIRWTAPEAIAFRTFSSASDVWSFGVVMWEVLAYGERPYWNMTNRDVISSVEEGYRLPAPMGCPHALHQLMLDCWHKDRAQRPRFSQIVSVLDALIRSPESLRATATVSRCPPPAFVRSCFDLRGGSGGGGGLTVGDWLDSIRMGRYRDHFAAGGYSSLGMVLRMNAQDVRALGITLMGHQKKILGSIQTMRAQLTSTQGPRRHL

[2] = molecular target: T2, Phosphatidylinositol 5-phosphate 4-kinase type-2 gamma (Homo sapiens) (UniProt Q8TBX8); test: Selectivity interaction (ActivX KiNativ screen (kinase selectivity in THP-1 cell lysates)) EUB0000639a PIP4K2C; type: subcellular; details: lysate, at 5 µM
T2 sequence (whole entry): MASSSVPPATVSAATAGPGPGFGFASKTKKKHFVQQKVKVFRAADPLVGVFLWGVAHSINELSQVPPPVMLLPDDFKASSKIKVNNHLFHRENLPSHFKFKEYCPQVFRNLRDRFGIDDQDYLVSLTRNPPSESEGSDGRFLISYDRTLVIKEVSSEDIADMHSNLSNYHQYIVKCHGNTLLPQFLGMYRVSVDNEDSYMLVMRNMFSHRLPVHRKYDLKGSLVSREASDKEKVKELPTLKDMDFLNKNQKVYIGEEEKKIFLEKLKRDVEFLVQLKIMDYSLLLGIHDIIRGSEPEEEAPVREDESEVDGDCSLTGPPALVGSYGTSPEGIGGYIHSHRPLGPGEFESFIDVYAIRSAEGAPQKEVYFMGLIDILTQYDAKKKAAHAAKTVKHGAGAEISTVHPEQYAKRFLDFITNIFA

[3] = molecular target: T3, SNF-related serine/threonine-protein kinase (Homo sapiens) (UniProt Q9NRH2); test: Selectivity interaction (ActivX KiNativ screen (kinase selectivity in THP-1 cell lysates)) EUB0000639a SNRK; type: subcellular; details: lysate, at 0.01 µM
T3 sequence (whole entry): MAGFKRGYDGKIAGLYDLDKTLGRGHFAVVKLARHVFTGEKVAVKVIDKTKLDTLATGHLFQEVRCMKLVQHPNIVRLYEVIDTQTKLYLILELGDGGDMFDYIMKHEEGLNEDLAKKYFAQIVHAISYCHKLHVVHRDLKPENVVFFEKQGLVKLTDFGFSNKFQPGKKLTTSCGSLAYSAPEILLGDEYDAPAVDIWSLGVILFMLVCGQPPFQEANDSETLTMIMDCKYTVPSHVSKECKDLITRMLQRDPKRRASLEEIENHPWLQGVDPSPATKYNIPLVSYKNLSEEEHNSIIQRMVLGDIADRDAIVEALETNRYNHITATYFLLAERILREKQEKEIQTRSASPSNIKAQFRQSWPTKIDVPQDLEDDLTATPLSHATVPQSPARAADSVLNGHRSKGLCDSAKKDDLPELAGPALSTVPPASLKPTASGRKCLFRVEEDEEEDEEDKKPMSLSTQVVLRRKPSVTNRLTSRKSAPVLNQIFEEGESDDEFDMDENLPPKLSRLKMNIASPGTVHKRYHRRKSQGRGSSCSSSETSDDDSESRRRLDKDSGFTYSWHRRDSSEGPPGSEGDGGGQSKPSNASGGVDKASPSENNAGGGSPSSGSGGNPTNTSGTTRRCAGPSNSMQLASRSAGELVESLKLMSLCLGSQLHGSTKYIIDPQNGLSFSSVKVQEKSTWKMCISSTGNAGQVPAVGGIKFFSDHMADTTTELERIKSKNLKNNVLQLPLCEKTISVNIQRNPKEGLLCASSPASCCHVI

[4] = molecular target: Serine/threonine-protein kinase WNK1 (Homo sapiens) (UniProt Q9H4A3); test: Selectivity interaction (ActivX KiNativ screen (kinase selectivity in THP-1 cell lysates)) EUB0000639a WNK1; type: subcellular; details: lysate, at 5 µM
Serine/threonine-protein kinase WNK1 (Homo sapiens), sequence (Q9H4A3 whole entry, looked up): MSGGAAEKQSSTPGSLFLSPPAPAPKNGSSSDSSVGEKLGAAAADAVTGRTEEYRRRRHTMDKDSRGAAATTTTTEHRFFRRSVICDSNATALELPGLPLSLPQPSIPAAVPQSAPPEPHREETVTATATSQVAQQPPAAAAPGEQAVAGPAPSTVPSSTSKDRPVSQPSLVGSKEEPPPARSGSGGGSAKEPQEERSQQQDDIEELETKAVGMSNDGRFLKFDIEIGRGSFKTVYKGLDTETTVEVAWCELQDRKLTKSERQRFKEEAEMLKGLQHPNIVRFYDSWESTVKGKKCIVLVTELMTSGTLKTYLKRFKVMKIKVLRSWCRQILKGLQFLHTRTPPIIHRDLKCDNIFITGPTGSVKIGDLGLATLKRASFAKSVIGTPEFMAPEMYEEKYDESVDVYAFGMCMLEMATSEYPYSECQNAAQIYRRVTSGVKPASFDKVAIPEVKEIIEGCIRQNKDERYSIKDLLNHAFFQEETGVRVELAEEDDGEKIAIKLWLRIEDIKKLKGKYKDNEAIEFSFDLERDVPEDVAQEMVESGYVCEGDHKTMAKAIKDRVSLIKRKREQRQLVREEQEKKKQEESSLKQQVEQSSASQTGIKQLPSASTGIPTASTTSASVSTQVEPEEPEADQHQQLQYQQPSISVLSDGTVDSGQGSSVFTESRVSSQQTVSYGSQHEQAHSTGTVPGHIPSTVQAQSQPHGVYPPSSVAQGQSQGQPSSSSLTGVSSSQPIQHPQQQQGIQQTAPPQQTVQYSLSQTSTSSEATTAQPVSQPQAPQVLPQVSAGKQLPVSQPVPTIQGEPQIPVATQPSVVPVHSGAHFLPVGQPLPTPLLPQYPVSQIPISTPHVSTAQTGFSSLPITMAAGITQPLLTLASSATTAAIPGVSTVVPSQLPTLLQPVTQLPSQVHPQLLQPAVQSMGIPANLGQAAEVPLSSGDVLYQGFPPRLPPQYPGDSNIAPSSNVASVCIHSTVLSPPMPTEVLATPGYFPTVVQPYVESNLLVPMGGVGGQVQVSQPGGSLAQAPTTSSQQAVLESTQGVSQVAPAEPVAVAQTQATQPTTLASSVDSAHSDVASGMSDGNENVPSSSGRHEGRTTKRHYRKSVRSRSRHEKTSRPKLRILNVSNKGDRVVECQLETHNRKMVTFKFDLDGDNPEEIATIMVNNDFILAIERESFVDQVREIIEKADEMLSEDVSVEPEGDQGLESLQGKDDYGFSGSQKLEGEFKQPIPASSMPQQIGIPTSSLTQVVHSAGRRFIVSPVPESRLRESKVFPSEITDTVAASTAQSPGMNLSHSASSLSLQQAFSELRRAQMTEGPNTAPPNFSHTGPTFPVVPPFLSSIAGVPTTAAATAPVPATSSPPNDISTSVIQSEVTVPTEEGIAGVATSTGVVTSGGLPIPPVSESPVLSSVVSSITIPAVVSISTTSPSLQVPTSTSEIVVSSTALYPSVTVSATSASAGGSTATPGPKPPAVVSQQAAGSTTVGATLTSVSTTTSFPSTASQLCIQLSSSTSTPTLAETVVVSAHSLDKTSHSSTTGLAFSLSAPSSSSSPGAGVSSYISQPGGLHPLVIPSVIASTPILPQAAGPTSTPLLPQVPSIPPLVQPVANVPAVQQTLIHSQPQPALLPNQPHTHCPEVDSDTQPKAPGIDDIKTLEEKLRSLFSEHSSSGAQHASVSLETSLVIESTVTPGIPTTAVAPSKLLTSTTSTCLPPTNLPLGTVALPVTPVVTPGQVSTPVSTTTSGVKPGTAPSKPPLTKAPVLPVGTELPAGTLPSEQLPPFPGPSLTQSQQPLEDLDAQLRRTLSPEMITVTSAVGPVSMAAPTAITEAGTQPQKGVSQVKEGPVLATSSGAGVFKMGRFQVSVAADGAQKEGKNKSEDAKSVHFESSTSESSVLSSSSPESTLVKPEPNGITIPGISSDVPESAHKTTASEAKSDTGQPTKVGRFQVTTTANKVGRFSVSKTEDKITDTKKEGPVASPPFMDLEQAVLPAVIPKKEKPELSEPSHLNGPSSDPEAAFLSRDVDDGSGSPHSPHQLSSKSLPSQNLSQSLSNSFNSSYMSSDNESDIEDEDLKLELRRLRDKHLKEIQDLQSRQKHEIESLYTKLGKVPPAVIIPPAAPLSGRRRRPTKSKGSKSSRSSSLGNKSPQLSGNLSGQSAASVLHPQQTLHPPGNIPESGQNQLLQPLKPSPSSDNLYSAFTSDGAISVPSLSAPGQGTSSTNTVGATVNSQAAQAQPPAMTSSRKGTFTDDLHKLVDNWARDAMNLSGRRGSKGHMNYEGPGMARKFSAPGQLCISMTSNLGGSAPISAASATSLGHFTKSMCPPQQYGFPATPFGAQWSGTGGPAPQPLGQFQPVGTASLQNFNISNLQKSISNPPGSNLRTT

[5] = molecular target: SRSF protein kinase 3 (Homo sapiens) (UniProt Q9UPE1); test: Selectivity interaction (SelectScreen profiling (Invitrogen)) EUB0000607a SRPK3; details: at 2 µM
SRSF protein kinase 3 (Homo sapiens), sequence (Q9UPE1 whole entry): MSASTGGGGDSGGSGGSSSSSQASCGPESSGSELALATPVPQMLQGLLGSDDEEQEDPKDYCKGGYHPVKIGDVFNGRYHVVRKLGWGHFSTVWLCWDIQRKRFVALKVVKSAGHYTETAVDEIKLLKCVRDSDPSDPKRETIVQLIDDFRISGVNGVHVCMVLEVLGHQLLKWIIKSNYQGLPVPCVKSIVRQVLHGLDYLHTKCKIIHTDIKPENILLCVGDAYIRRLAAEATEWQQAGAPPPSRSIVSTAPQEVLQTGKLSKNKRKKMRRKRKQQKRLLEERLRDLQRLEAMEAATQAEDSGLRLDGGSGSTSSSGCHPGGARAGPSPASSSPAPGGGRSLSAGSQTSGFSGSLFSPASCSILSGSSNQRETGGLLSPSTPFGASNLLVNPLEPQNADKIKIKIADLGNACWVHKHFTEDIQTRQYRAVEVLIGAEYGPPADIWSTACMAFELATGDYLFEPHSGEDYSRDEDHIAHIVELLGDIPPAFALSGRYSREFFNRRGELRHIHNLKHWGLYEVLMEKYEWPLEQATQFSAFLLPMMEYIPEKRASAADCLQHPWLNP

[6] = molecular target: Mitogen-activated protein kinase 1 (Homo sapiens, UniProt P28482); test: Selectivity interaction (Rxn Biology Kinase assay) EUB0001632a MAPK1; details: at 10 µM
Mitogen-activated protein kinase 1, sequence (P28482 whole entry): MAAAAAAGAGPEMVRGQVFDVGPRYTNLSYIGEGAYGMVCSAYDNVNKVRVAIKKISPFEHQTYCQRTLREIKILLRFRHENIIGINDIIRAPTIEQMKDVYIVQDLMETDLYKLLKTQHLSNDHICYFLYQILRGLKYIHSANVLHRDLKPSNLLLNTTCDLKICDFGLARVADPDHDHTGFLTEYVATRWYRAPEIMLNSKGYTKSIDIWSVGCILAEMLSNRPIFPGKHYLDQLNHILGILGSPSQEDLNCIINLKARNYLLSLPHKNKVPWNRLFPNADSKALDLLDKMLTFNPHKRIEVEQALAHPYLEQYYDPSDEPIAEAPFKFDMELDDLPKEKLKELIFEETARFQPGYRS

[7] = test system: Activin receptor type-1 (Homo sapiens), Q04771 [R206H]; test: Selectivity interaction (LanthaScreen Eu Kinase Binding Assay) EUB0001632a ACVR1; details: at 10 µM
Activin receptor type-1 (Homo sapiens), Q04771 [R206H], sequence (Q04771 whole entry R206H): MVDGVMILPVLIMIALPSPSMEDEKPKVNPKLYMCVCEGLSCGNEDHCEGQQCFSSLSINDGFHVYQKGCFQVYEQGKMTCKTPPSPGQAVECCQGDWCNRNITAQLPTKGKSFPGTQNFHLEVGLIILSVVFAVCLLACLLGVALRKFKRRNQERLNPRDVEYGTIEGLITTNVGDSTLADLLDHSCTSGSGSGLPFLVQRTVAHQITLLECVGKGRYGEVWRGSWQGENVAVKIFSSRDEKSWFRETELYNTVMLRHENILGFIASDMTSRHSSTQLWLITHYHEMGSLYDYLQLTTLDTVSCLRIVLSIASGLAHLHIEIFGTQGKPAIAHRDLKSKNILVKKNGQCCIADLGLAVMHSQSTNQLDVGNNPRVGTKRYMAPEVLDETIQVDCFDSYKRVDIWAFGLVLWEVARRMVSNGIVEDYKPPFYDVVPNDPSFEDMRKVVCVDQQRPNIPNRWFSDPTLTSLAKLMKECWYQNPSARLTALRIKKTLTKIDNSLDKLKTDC

`COc1cc(N(C)c2ccnc3ccc(C(F)(F)F)cc23)cc(OC)c1OC` was tested, and the % binding [1] was 94%.
Compound `CC[C@@H]1[C@H](F)C(=O)N[C@@H]1COc1nccc2cc(C(N)=O)c(OC)cc12` [ZIMLOVISERTIB] has a % of inhibition [2] of 87.4%, a % of inhibition [3] of 0.6% and a % of inhibition [4] of -14.5%.
With `CNC(=O)Nc1ccc(-c2nc(N3CC4CCC(C3)O4)c3cnn(C4CCC5(CC4)OCCO5)c3n2)cc1` the % of inhibition [5] was 6%.
In the case of `Cn1cc(-n2cnc3c(NCc4nc5cc(Cl)c(Cl)cc5[nH]4)nc(N4CCOCC4)nc32)cn1`, the % of inhibition [6] was 5.79% and the % of inhibition [7] was -125%.
